Test results: article PMC7496508, “Modular Medical Imaging Agents Based on Azide–Alkyne Huisgen Cycloadditions: Synthesis and Pre‐Clinical Evaluation of ^18F‐Labeled PSMA‐Tracers for Prostate Cancer Imaging” (Chemistry (Weinheim an Der Bergstrasse, Germany), 2020)
Several values for one entry are separate records, joined by “and”; a condition that tells them apart may be missing. Equal values may be shown once.

Columns and labels:
[1] = molecular target: T1, PSMA (Homo sapiens, UniProt Q04609); experiment: competitive binding radioassay with [18F]PSMA-1007 as radioactive competitor on LNCaP cells
T1 construct: host or cells: LNCaP cells
T1 sequence (Q04609 whole entry): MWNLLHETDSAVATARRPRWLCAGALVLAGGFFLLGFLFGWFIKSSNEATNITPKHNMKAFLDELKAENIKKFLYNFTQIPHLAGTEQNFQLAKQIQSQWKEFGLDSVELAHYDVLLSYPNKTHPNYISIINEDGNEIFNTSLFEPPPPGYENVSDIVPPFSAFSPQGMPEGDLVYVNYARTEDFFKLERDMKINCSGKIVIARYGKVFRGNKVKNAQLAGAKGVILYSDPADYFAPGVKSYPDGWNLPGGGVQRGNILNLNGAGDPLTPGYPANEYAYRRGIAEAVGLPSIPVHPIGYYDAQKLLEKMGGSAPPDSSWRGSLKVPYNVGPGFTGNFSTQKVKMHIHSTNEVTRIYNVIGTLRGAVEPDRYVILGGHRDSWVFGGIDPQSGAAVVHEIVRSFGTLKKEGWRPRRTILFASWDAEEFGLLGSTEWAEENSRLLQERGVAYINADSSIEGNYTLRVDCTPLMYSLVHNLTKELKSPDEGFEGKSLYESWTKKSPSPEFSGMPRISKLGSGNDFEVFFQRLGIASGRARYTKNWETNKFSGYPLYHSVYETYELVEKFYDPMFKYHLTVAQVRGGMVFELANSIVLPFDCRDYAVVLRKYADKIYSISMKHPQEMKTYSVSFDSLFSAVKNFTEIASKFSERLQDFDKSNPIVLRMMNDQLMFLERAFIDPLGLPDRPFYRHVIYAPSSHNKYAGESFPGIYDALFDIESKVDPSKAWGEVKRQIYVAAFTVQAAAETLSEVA
Description: During the pre‐clinical evaluation of [^18F]PSMA‐MIC01, many hospitals including the University Medical Center Groningen changed from using [^68Ga]PSMA‐11 to [^18F]PSMA‐1007. Therefore, the binding affinities for the 2nd generation PSMA‐tracers‐tracers were determined in a radioassay using [^18F]PSMA‐1007 as radioactive competitor (Figure 1 D). page 20: Table S3. Counts per minute (CPM) of the 3 indidicually measured triplicates of [18F]PSMA-MIC01 of n- octanol and PBS Octanol (CPM) PBS (CPM) BLK (CPM) LogD Mean SD […] No 1.2 2995.66 4176463.25 58.39 -3.15 […] No 2.3 1020.97 1916376.47 30.41 -3.29 -3.22 0.09 6. Cell culture. Prostate cancer cell lines PC-3 and LNCaP were obtained from the American Type Culture Collection (ATCC, Manassas, VA). Cells were cultured in RPMI-1640 (Lonza, Swiss), supplemented with 10 % fetal calf serum (FCS, Thermo Scientific Waltham, MA) at 37°C in a humidified 5 % CO2 atmosphere. To enhance adherence of LNCaP cells tissue culture flasks and/or well plates were pre-coated with poly-D-lysine (Merck) according manufacture protocol. Cells were regularly checked for mycoplasma infection. 6.1. Cell binding studies. For the determination of the binding affinity, a competitive binding radioassay was performed. Two 24 well plates were incubated with 50.000 cells 3 to 4 days prior to the cell experiments. After washing the cells twice with warm PBS, new medium was added. For the binding […] cold reference compound F-PSMA-MIC01 were added to the wells shortly before 50 µL of the radioligand [68Ga]PSMA-HBED-CC or [18F]PSMA-1007 to reach a final volume of 500 µL in each well. After incubation of 90 min at 37°C under humidified conditions the cells were washed twice with ice-cold PBS to remove unbound tracer. Cells were detached from the wells using Trypsin supplemented with 25 % EDTA and incubated until cells were completely detached. 900 µL of medium was added and cells were transferred into tubes. The remaining activity in the cells were measured in a γ-counter. Afterwards, the cells were counted in a 1:1 solution of cell suspension and Trypan Blue. The tracer uptake was calculated using Microsoft Excel and corrected for the average number of cells and averaged. The logIC50 value was calculated using the non-linear regression algorithm for a one-site FITlogIC50 […] The graphs represented show the average of the three individual experiments, while the mentioned logIC50 was calculated from the mean of the three experiments; 19

[2] = molecular target: T1, PSMA; experiment: cell-based competitive binding radioassay with [68Ga]PSMA-11 as radioligand on LNCaP cells
Description: To compare the binding affinity of F‐PSMA‐MIC01 with „gold standard“ PSMA‐tracers, the same assay was performed using the precursor of [^68Ga]PSMA‐11 (Figure 2 D).
Table S3. Counts per minute (CPM) of the 3 indidicually measured triplicates of [18F]PSMA-MIC01 of n- […]
Octanol (CPM) PBS (CPM) BLK (CPM) LogD Mean SD
Prostate cancer cell lines PC-3 and LNCaP were obtained from the American Type Culture Collection (ATCC, Manassas, VA). Cells were cultured in RPMI-1640 (Lonza, Swiss), supplemented with 10 % fetal calf serum (FCS, Thermo Scientific Waltham, MA) at 37°C in a humidified 5 % CO2 atmosphere. To enhance adherence of LNCaP cells tissue culture flasks and/or well plates were pre-coated with poly-D-lysine (Merck) according manufacture protocol. Cells were regularly checked for mycoplasma infection.
6.1. Cell binding studies.
For the determination of the binding affinity, a competitive binding radioassay was performed.
Two 24 well plates were incubated with 50.000 cells 3 to 4 days prior to the cell experiments.
After washing the cells twice with warm PBS, new medium was added. For the binding […]
cold reference compound F-PSMA-MIC01 were added to the wells shortly before 50 µL of the radioligand [68Ga]PSMA-HBED-CC or [18F]PSMA-1007 to reach a final volume of 500 µL in each well. After incubation of 90 min at 37°C under humidified conditions the cells were washed twice with ice-cold PBS to remove unbound tracer. Cells were detached from the wells using Trypsin supplemented with 25 % EDTA and incubated until cells were completely detached. […] The remaining activity in the cells were measured in a γ-counter. Afterwards, the cells were counted in a 1:1 solution of cell suspension and Trypan Blue. The tracer uptake was calculated using Microsoft Excel and corrected for the average number of cells and averaged. The logIC50 value was calculated using the non-linear regression algorithm for a one-site FITlogIC50 using PrismGraphPad 7.2. The graphs represented show the average of the three individual experiments, while the mentioned logIC50 was calculated from the mean of the three

[3] = system: LNCaP tumor; design: method as in PMID 27789722; conditions: cited from earlier work
[4] = distribution coefficient logD, n-octanol/PBS; format: physicochemical; conditions: n-octanol/PBS, pH 7.4, n-octanol/PBS pH 7.4; overall mean
Description: page 19: Figure S3: HPLC purification of [18F]PSMA-MIC02 (A) and after 4 h (B). 5. Distribution coefficient LogD. […] cup. 100 µL of the formulated final solution of [18F]PSMA-MIC01 or [18F]PSMA-MIC02 was added and vortexed for 1 minute and centrifuged for 5 min at […]. The different layers were separated and 100 µL of each layer were measured on a γ-counter. Based on the counts per minute (CPM) of each fraction, the partition coefficient was measured with the following formula: log(CPMoctanol/CPMPBS). The obtained data are as followed. Table S2. Counts per minute (CPM) of the 3 indidicually measured triplicates of [18F]PSMA-MIC01 of n- octanol and PBS. Octanol (CPM) PBS (CPM) BLK (CPM) LogD Mean SD […] No 1.2 2823.43 2715328.33 93.59 -2.99 […] No 2.3 394.49 640463.84 93.59 -3.21 […] No 3.2 3690.69 2357291.58 50.84 -2.81 No 3.3 5848.38 3956671.48 52.31 -2.83 -3.01 0.22 18 (1 picture or pasted object on this page, not shown here)

[5] = system: LNCaP (PSMA+) xenografts; experiment: ex vivo organ distribution, LNCaP xenograft mice; format: in vivo, Balb/c nude mice; conditions: LNCaP (PSMA+) xenograft, dissected after PET scan
Description: All groups were evaluated by visual assessment of the PET image and the percentage injected dose per gram (%ID g^−1).
The animal experiments were all performed according to the ethical guidelines and approved by the local animal welfare committee of the University of Groningen (IvD number 15166-06-001. All animals were caged separately in individually ventilated cages.
7-12 week old immune deficient Balb/c nude mice were inoculated with 200 µL of a 1:1 suspension of medium containing approximately 4 x10^6 LNCaP cells (PSMA positive cells) or 5 x 10^6 PC3 cells (PSMA-negative cells) in RPMI-1640, and Matrigel Basement Membrane Matrix High concentration. The cells were subcutaneously inoculated on the right shoulder.
After 3 to 5 weeks for LNCaP-xenografts, 2-3 weeks for PC3-xenografts or when a tumor size of 1cm3 was reached, the animals were transported to the PET imaging facility. For the […]
prepared and 100 µL were injected via penile vein injection 30 min prior to the tracer injection. Animals were anesthetized at 5 % isoflurane and maintained under 2 % isoflurane enriched with O2. The dynamic PET scan was started within 5 min after tracer injection with an acquisition time of 90 min. The static scan was performed 60 min after tracer injection with an acquisition time of 30 min.
7.2. Organ distribution and Metabolite analysis.
After sacrificing the animals, the organs were dissected and measured in a γ-counter. The obtained CPM’s were normalized to %ID/g (Table shown in main text). […]
In order to check for the significant differences, we also checked for the Cohen’s d, a measurement to determine the effect size. It is calculated on the following formula:
Cohen′sD = Mean1− Mean2 . […]

[6] = given as logIC50, single experiments, radioligand [18F]PSMA-1007, read-out: logIC50, individual experiments (converted)

Which IC50 [1, 6] does the source give for `O=C(O)CC[C@H](NC(=O)N[C@@H](CCCCNC(=O)c1ccc(-c2cn(CCOCCOCCF)nn2)cc1)C(=O)O)C(=O)O` [F-PSMA-MIC01] here?
The IC50 was 363 nM and 851 nM and 219 nM.

And the IC50 ([2]; given as logIC50, single experiments, radioligand [68Ga]PSMA-11, read-out: logIC50, individual experiments (No 1-3) (converted))?
The IC50 was 57.5 nM and 138 nM and 257 nM.

And the IC50 ([2]; printed as logIC50 (negative values), mean of three experiments, radioligand [68Ga]PSMA-11, 90 min 37°C, read-out: logIC50 (converted))?
Its IC50 is 129 nM.

With `O=C(O)CC[C@H](NC(=O)N[C@@H](CCCCNC(=O)c1ccc(-c2cn(CCOCCOCCOc3ccc(CCF)cc3)nn2)cc1)C(=O)O)C(=O)O` [F-PSMA-MIC02] as the compound, how does the IC50 [1, 6] read?
Its IC50 is 44.7 nM and 45.7 nM and 30.9 nM.

Which IC50 ([1]; printed as logIC50 (negative values), mean of n=3 (MIC03 n=4), radioligand [18F]PSMA-1007, read-out: logIC50 (converted)) does the source give for `O=C(O)CC[C@H](NC(=O)N[C@@H](CCCCNC(=O)c1ccc(Cn2cc(COCCOCCF)nn2)cc1)C(=O)O)C(=O)O` [F-PSMA-MIC03] here?
Its IC50 is 275 nM.

With `O=C(O)CC[C@H](NC(=O)N[C@@H](CCCCNC(=O)c1ccc(Cn2cc(COCCOCCOc3ccc(CCF)cc3)nn2)cc1)C(=O)O)C(=O)O` [F-PSMA-MIC04] as the compound, how does the IC50 [1, 6] read?
The IC50 was 245 nM and 151 nM and 490 nM.

With `O=C(O)CC[C@H](NC(=O)N[C@@H](CCCCNC(=O)[C@H](Cc1ccc2ccccc2c1)NC(=O)c1ccc(CNC(=O)[C@H](CCC(=O)O)NC(=O)[C@H](CCC(=O)O)NC(=O)c2ccc([18F])nc2)cc1)C(=O)O)C(=O)O` [[^18F]PSMA‐1007] as the compound, how does the LNCaP tumor uptake [3] read?
Its LNCaP tumor uptake is 8.04±2.4 %ID g^−1.

Which logD [4] does the source give for `O=C(O)CC[C@H](NC(=O)N[C@@H](CCCCNC(=O)c1ccc(-c2cn(CCOCCOCCOc3ccc(CC[18F])cc3)nn2)cc1)C(=O)O)C(=O)O` [[^18F]PSMA‐MIC02] here?
Its logD is -3.22 ± 0.1.

Which results are given for `O=C([O-])CN(CCN(CC(=O)[O-])Cc1cc(CCC(=O)NCCCCCC(=O)NCCCC[C@H](NC(=O)N[C@@H](CCC(=O)O)C(=O)O)C(=O)O)ccc1[O-])Cc1cc(CCC(=O)O)ccc1[O-].[68Ga+3].[OH3+]` [[^68Ga]PSMA‐11, reference compound]?
ex vivo uptake bone [5]: 0.1±0.1 %ID g^−1; ex vivo uptake brain [5]: 0.0±0.0 %ID g^−1; ex vivo uptake heart [5]: 0.2±0.0 %ID g^−1; ex vivo uptake kidney [5]: 69.1±21.1 %ID g^−1; ex vivo uptake large intestine [5]: 0.7±0.9 %ID g^−1; ex vivo uptake liver [5]: 0.2±0.3 %ID g^−1; ex vivo uptake lungs [5]: 1.1±0.4 %ID g^−1; ex vivo uptake muscles [5]: 0.2±0.1 %ID g^−1; ex vivo uptake pancreas [5]: 0.6±0.6 %ID g^−1; ex vivo uptake plasma [5]: 1.0±0.5 %ID g^−1; ex vivo uptake salivary glands [5]: 0.9±0.4 %ID g^−1; ex vivo uptake small intestine [5]: 0.5±0.6 %ID g^−1; ex vivo uptake spleen [5]: 15.9±7.3 %ID g^−1; ex vivo uptake stomach [5]: 0.4±0.2 %ID g^−1; ex vivo uptake tumor [5]: 6.8±6.3 %ID g^−1; ex vivo uptake urine [5]: 45.4±30.8 %ID g^−1; ex vivo uptake whole blood [5]: 2.2±3.8 %ID g^−1

Which “logIC50, individual experiments (No 1-3)” value ([2]; given as logIC50, single experiments, radioligand [68Ga]PSMA-11, listed as PSMA-11 precursor) does the source give for `O=C(O)CCc1ccc(O)c(CN(CCN(CC(=O)O)Cc2cc(CCC(=O)NCCCCCC(=O)NCCCC[C@H](NC(=O)N[C@@H](CCC(=O)O)C(=O)O)C(=O)O)ccc2O)CC(=O)O)c1` [precursor of PSMA-11, reference compound] here?
Its value is -7.12 and -7.03 and -7.53.
